The source of these data is US7176313B2, “Anti acid-fast bacterial agent containing pyridonecarboxylic acids as active ingredient” (Daiichi Pharmaceutical Co., Ltd., priority 2000, dated 2007).

The subject of the assay is RFP-resistant M. tuberculosis. The experiment in a line: microbe, parasite or virus in culture. The assay is classed as cell-based, Mycobacterium tuberculosis.
[1] abbreviates: Mycobacterium tuberculosis, RFP-resistant M. tuberculosis No. 44, Table 8 (series 2).
Where [2] appears, read: Mycobacterium tuberculosis, RFP-resistant M. tuberculosis No. 45, Table 8 (series 2).
The mark [3] stands for this setting: Mycobacterium tuberculosis, RFP-resistant M. tuberculosis No. 50, Table 8 (series 2).
Where [4] appears, read: Mycobacterium tuberculosis, RFP-resistant M. tuberculosis No. 51, Table 8 (series 2).
[5] abbreviates: Mycobacterium tuberculosis, RFP-resistant M. tuberculosis No. 56, Table 8 (series 2).
The mark [6] stands for this setting: Mycobacterium tuberculosis, RFP-resistant M. tuberculosis No. 71, Table 8 (series 2).
Where [7] appears, read: Mycobacterium tuberculosis, RFP-resistant M. tuberculosis No. 97, Table 8 (series 2).
Where [8] appears, read: RFP-resistant M. tuberculosis No. 44, Table 7.
[9] abbreviates: RFP-resistant M. tuberculosis No. 44, Table 8 (series 2).
Where [10] appears, read: RFP-resistant M. tuberculosis No. 45, Table 8 (series 2).
The mark [11] stands for this setting: RFP-resistant M. tuberculosis No. 50, Table 7.
Setting [12] is: RFP-resistant M. tuberculosis No. 50, Table 8 (series 2).
[13] abbreviates: RFP-resistant M. tuberculosis No. 51, Table 8 (series 2).
Where [14] appears, read: RFP-resistant M. tuberculosis No. 56, Table 8 (series 2).
Where [15] appears, read: RFP-resistant M. tuberculosis No. 71, Table 8 (series 2).
[16] abbreviates: RFP-resistant M. tuberculosis No. 97, Table 8 (series 2).
Setting [17] is: Mycobacterium tuberculosis, RFP-resistant M. tuberculosis No. 44, Table 7.
Setting [18] is: Mycobacterium tuberculosis, RFP-resistant M. tuberculosis No. 45, Table 7.
Where [19] appears, read: Mycobacterium tuberculosis, RFP-resistant M. tuberculosis No. 47, Table 7.
Setting [20] is: Mycobacterium tuberculosis, RFP-resistant M. tuberculosis No. 50, Table 7.
Where [21] appears, read: Mycobacterium tuberculosis, RFP-resistant M. tuberculosis No. 56, Table 7.
[22] abbreviates: Mycobacterium tuberculosis, RFP-resistant M. tuberculosis No. 71, Table 7.
The mark [23] stands for this setting: Mycobacterium tuberculosis, RFP-resistant M. tuberculosis No. 97, Table 7.

≈ marks a conversion by molar mass, not a printed value.

In the case of `COc1c(N2CCNC(CF)(CF)C2)c(F)cc2c(=O)c(C(=O)O)cn([C@@H]3C[C@@H]3F)c12` [Compd. 20, 6-Fluoro-1-[(1R,2S)-2-fluorocyclopropyl]-7-(3,3′-difluoromethylpiperazin-1-yl)-1,4-dihydro-8-methoxy-4-oxoquinoline-3-carboxylic acid], the MIC worked out at 0.39 µg/mL (≈ 0.88 µM) under setting [1]; 6.25 µg/mL (≈ 14.1 µM) under setting [2]; 0.39 µg/mL (≈ 0.88 µM) under setting [3]; 0.78 µg/mL (≈ 1.76 µM) under setting [4]; 50 µg/mL (≈ 113 µM) under setting [5]; 1.56 µg/mL (≈ 3.52 µM) under setting [6]. Moreover, the MIC under setting [7] worked out at 1.56 µg/mL (≈ 3.52 µM).

On to `COc1c(N2CCNC(C3CC3)C2)c(F)cc2c(=O)c(C(=O)O)cn([C@@H]3C[C@@H]3F)c12` (stereo partly drawn) [Compd. 24, 7-(3-Cyclopropylpiperazin-1-yl)-6-fluoro-1-[(1R,2S)-2-fluorocyclopropyl]-1,4-dihydro-8-methoxy-4-oxoquinoline-3-carboxylic acid], for which the MIC by setting is: under setting [1], 0.78 µg/mL (≈ 1.86 µM); under setting [2], 12.5 µg/mL (≈ 29.8 µM); under setting [3], 0.39 µg/mL (≈ 0.93 µM); under setting [4], 1.56 µg/mL (≈ 3.72 µM); under setting [5], 50 µg/mL (≈ 119 µM); under setting [6], 3.13 µg/mL (≈ 7.46 µM). This compound registered an MIC under setting [7] of 3.13 µg/mL (≈ 7.46 µM).

For the compound `CC1COc2c(N3CCN(C)CC3)c(F)cc3c(=O)c(C(=O)O)cn1c23` (stereo not drawn) [OFLX, OFLOXAIN, reference compound], the MIC came out at 1.56 µg/mL (≈ 4.32 µM) under setting [8]; 2.0 µg/mL (≈ 5.53 µM) under setting [9]; 25 µg/mL (≈ 69.2 µM) (RFP-resistant M. tuberculosis No. 45, Table 7); 3.20 µg/mL (≈ 8.86 µM) under setting [10]; 8.0 µg/mL (≈ 22.1 µM) (RFP-resistant M. tuberculosis No. 47, Table 8 (series 2)); 0.78 µg/mL (≈ 2.16 µM) under setting [11]. Further, the MIC is, setting by setting: under setting [12], 1.0 µg/mL (≈ 2.77 µM); under setting [13], 4.0 µg/mL (≈ 11.1 µM); under setting [14], 16 µg/mL (≈ 44.3 µM); under setting [15], 4.0 µg/mL (≈ 11.1 µM); under setting [16], 16 µg/mL (≈ 44.3 µM).

For `COc1c(C2CNC3(CCC3)CN2)c(F)cc2c(=O)c(C(=O)O)cn([C@@H]3C[C@@H]3F)c12` (stereo partly drawn) [Compd. 23, 7-{5,8-Diazaspiro[3.5]nonan-7-yl}-6-fluoro-1-[(1R,2S)-2-fluorocyclopropyl]-1,4-dihydro-8-methoxy-4-oxoquinoline-3-carboxylic acid], the MIC was 1.56 µg/mL (≈ 3.72 µM) under setting [1]; 25 µg/mL (≈ 59.6 µM) under setting [2]; 1.56 µg/mL (≈ 3.72 µM) under setting [3]; 6.25 µg/mL (≈ 14.9 µM) under setting [4]; 100 µg/mL (≈ 238 µM) under setting [5]; 12.5 µg/mL (≈ 29.8 µM) under setting [6]. In addition, the MIC under setting [7] is 12.5 µg/mL (≈ 29.8 µM).

As to `COc1c(N2CCN[C@@H](c3ccccc3)C2)c(F)cc2c(=O)c(C(=O)O)cn([C@@H]3C[C@@H]3F)c12.Cl` [Compd. 26], the MIC is, setting by setting: under setting [9], 0.1 µg/mL; under setting [10], 1.56 µg/mL; under setting [12], 0.1 µg/mL; under setting [13], 0.2 µg/mL; under setting [14], 12.5 µg/mL; under setting [15], 0.78 µg/mL. Under setting [16], this compound gave an MIC of 0.78 µg/mL.

Turning to `COCC1CN(c2c(F)cc3c(=O)c(C(=O)O)cn([C@@H]4C[C@@H]4F)c3c2OC)CCN1` (stereo partly drawn) [Compd. 21, 6-Fluoro-1-[(1R,2S)-2-fluorocyclopropyl]-1,4-dihydro-8-methoxy-7-(3-methoxymethylpiperazin-1-yl)-4-oxoquinoline-3-carboxylic acid], the MIC runs as follows: under setting [1], 0.39 µg/mL (≈ 0.921 µM); under setting [2], 3.13 µg/mL (≈ 7.39 µM); under setting [3], 0.39 µg/mL (≈ 0.921 µM); under setting [4], 0.78 µg/mL (≈ 1.84 µM); under setting [5], 25 µg/mL (≈ 59 µM); under setting [6], 1.56 µg/mL (≈ 3.68 µM). The compound also showed an MIC under setting [7] of 1.56 µg/mL (≈ 3.68 µM).

The compound `CO[C@H]1/C=C/O[C@@]2(C)Oc3c(C)c(O)c4c(O)c(c(/C=N/N5CCN(C)CC5)c(O)c4c3C2=O)NC(=O)/C(C)=C\C=C\[C@H](C)[C@H](O)[C@@H](C)[C@@H](O)[C@@H](C)[C@H](OC(C)=O)[C@@H]1C` [RFP, rifampicin, reference compound] gave an MIC under setting [17] above 100 µg/mL; an MIC under setting [18] above 100 µg/mL; an MIC under setting [19] above 100 µg/mL; an MIC under setting [20] above 100 µg/mL; an MIC (Mycobacterium tuberculosis, RFP-resistant M. tuberculosis No. 51, Table 7) above 100 µg/mL; an MIC under setting [21] above 100 µg/mL. Moreover, the MIC under setting [22] was above 100 µg/mL and the MIC under setting [23] is above 100 µg/mL.

For `COc1c(N2CCNC3(CC3)C2)c(F)cc2c(=O)c(C(=O)O)cn([C@@H]3C[C@@H]3F)c12` [Compd. 22, 7-{4,7-Diazaspiro[2.5]octan-7-yl}-6-fluoro-1-[(1R,2S)-2-fluorocyclopropyl]-1,4-dihydro-8-methoxy-4-oxoquinoline-3-carboxylic acid], the MIC is, setting by setting: under setting [1], 0.78 µg/mL (≈ 1.92 µM); under setting [2], 25 µg/mL (≈ 61.7 µM); under setting [3], 0.78 µg/mL (≈ 1.92 µM); under setting [4], 1.56 µg/mL (≈ 3.85 µM); under setting [5], 100 µg/mL (≈ 247 µM); under setting [6], 3.13 µg/mL (≈ 7.72 µM). The MIC under setting [7] came to 6.25 µg/mL (≈ 15.4 µM).

`COc1c(N2CCN(C)CC2)c(F)cc2c(=O)c(C(=O)O)cn([C@@H]3C[C@@H]3F)c12` [Compd. 15, 6-Fluoro-1-[2-(S)-fluoro-1-(R)-cyclopropyl]-1,4-dihydro-8-methoxy-7-(4-methylpiperazin-1-yl)-4-oxoquinoline-3-carboxylic acid]: the MIC was found to be 0.2 µg/mL (≈ 0.508 µM) under setting [17]; 1.56 µg/mL (≈ 3.97 µM) under setting [18]; 0.39 µg/mL (≈ 0.991 µM) under setting [19]; 0.2 µg/mL (≈ 0.508 µM) under setting [20]; 6.25 µg/mL (≈ 15.9 µM) under setting [21]; 0.39 µg/mL (≈ 0.991 µM) under setting [22]. Moreover, the MIC under setting [23] is 1.56 µg/mL (≈ 3.97 µM).

For the compound `COc1c(N2CCN3CCC2C3)c(F)cc2c(=O)c(C(=O)O)cn([C@@H]3C[C@@H]3F)c12` (stereo partly drawn) [Compd. 28, 7-{1,4-Diazabicyclo[3.2.1]octan-4-yl}-6-fluoro-1-[(1R,2S)-2-fluorocyclopropyl]-1,4-dihydro-8-methoxy-4-oxoquinoline-3-carboxylic acid], the MIC under setting [1] is 0.2 µg/mL (≈ 0.493 µM); the MIC under setting [2] was 3.13 µg/mL (≈ 7.72 µM); the MIC under setting [3] is 0.2 µg/mL (≈ 0.493 µM); the MIC under setting [4] stood at 0.78 µg/mL (≈ 1.92 µM); the MIC under setting [5] came to 12.5 µg/mL (≈ 30.8 µM); the MIC under setting [6] came to 1.56 µg/mL (≈ 3.85 µM). The MIC under setting [7] worked out at 1.56 µg/mL (≈ 3.85 µM).

For `C[C@H]1COc2c(N3CC(N)C4(CC4)C3)c(F)cc3c(=O)c(C(=O)O)cn1c23` (stereo partly drawn) [Compd. 14], the MIC runs as follows: under setting [8], 0.78 µg/mL (≈ 2.09 µM); under setting [11], 0.39 µg/mL (≈ 1.04 µM).

As for `COc1c(N2C[C@@H](C)N[C@@H](C)C2)c(F)cc2c(=O)c(C(=O)O)cn([C@@H]3C[C@@H]3F)c12` [Compd. 16, 7-(3,5-cis-Dimethylpiperazin-1-yl)-6-fluoro-1-[2-(S)-fluoro-1-(R)-cyclopropyl]-1,4-dihydro-8-methoxy-4-oxoquinoline-3-carboxylic acid], the MIC under setting [1] amounted to 0.25 µg/mL (≈ 0.614 µM); the MIC under setting [2] was determined as 4 µg/mL (≈ 9.82 µM); the MIC (Mycobacterium tuberculosis, RFP-resistant M. tuberculosis No. 47, Table 8 (series 2)) came out at 0.5 µg/mL (≈ 1.23 µM); the MIC under setting [3] turned out to be 0.12 µg/mL (≈ 0.295 µM); the MIC under setting [4] was 0.5 µg/mL (≈ 1.23 µM); the MIC under setting [5] was 64 µg/mL (≈ 157 µM). Besides, the MIC under setting [6] is 0.5 µg/mL (≈ 1.23 µM) and the MIC under setting [7] was 1 µg/mL (≈ 2.45 µM).

Turning to `C[C@H]1COc2c(N3CCN[C@@H](c4ccccc4)C3)c(F)cc3c(=O)c(C(=O)O)cn1c23` [Compd. 27, 9-Fluoro-2,3-dihydro-3-(S)-methyl-7-oxo-10-[3-(S)-phenyl-1-piperazinyl]-7H-pyrido[1.2.3-de][1,4]benzoxazine-6-carboxylic acid], the MIC reads like this: under setting [9], 0.1 µg/mL (≈ 0.236 µM); under setting [10], 1.56 µg/mL (≈ 3.68 µM); under setting [12], 0.1 µg/mL (≈ 0.236 µM); under setting [13], 0.2 µg/mL (≈ 0.472 µM); under setting [14], 6.25 µg/mL (≈ 14.8 µM); under setting [15], 0.39 µg/mL (≈ 0.921 µM). Besides, under setting [16], the MIC stood at 0.78 µg/mL (≈ 1.84 µM).

With `COc1c(N2CCNC(CF)C2)c(F)cc2c(=O)c(C(=O)O)cn([C@@H]3C[C@@H]3F)c12` (stereo partly drawn) [Compd. 19, 6-Fluoro-1-[(1R,2S)-2-fluorocyclopropyl]-7-(3-fluoromethylpiperazin-1-yl)-1,4-dihydro-8-methoxy-4-oxoquinoline-3-carboxylic acid], the MIC is, setting by setting: under setting [1], 0.39 µg/mL (≈ 0.948 µM); under setting [2], 3.13 µg/mL (≈ 7.61 µM); under setting [3], 0.2 µg/mL (≈ 0.486 µM); under setting [4], 0.78 µg/mL (≈ 1.9 µM); under setting [5], 50 µg/mL (≈ 122 µM); under setting [6], 1.56 µg/mL (≈ 3.79 µM). The same compound returned an MIC under setting [7] of 1.56 µg/mL (≈ 3.79 µM).
